Consider nine compounds from paper PMC12786457, “Studies on the Complexation of Platinum(II) by Some 4-Nitroisothiazoles and the Cytotoxic Activity of the Resulting Complexes” (Molecules, 2025).

“Also recorded” adds a separate entry of the source. Like-named read-outs stand apart in the source and are kept apart here.

The conditions of data set [1]: cited from earlier work.
For data set [2], the system named is A549 (lung adenocarcinoma). Put plainly: SRB (sulforhodamine B) viability assay, A549. The class given is cell-based, human. The following applies: SRB assay. Here is the method: (§1) The cytotoxicity of the complexes C1–C5 was estimated by examining cell viability using the sulforhodamine B assay. […] However, due to the very poor solubility of the most polar complex C5 in acetone, its initial solution had to be prepared in polar N,N-dimethylacetamide (DMA) (see Section 3.7). Cisplatin was used as the reference drug. The results are presented as IC50 (50% inhibitory concentration), i.e., concentrations that reduce cell survival by 50%. The test was conducted on three cancer cell lines and one normal healthy cell line, namely, breast adenocarcinoma (MCF-7), ovarian adenocarcinoma (ES-2), lung adenocarcinoma (A549), and murine embryonic fibroblast (BALB/3T3).
(§2) Three solid tumor cell lines were used in this study: MCF-7 (breast adenocarcinoma), ES-2 (ovarian adenocarcinoma), and A549 (lung adenocarcinoma). The BALB/3T3 (mouse embryonic fibroblast) cell line was used as a comparative nonpathological tissue. All cell lines were purchased from the American Type Culture Collection (ATCC, Rockville, MD, USA). The preparation of cell cultures for cytotoxicity experiments is described in detail in the following article.
(§3) The initial solutions for subsequent dilutions in biological medium were prepared in a similar manner as described previously. […] The complex C5 was dissolved in the dimethylacetamide (DMA). All the initial solutions were prepared ex tempore and then were added to the culture medium 1:9 (v/v) to obtain a stock solution of 1 mg/mL.
(§4) The test was prepared and performed in the same manner as detailed in the following cited works.
(The SRB assay estimates cell density from bound dye.)

Data set [3] relates to ES-2 (ovarian adenocarcinoma). Kind of data set: SRB (sulforhodamine B) viability assay, ES-2. Type of data set: cell-based, human. Here is the method: as §1, §2, §3, §4
For data set [4], the system named is MCF-7 (breast adenocarcinoma). Put plainly: SRB (sulforhodamine B) viability assay, MCF-7. Type of data set: cell-based, human. The following applies: SRB assay. On the procedure:
as §1, §2, §3, §4

For data set [5], the system named is BALB/3T3 (mouse embryonic fibroblast). Kind of data set: SRB (sulforhodamine B) viability assay, normal cells BALB/3T3. The class given is cell-based. The following applies: normoxia, read-out: IC50 ± SD, Normal Cells BALB/3T3, Normoxia. Here is the method: as §1, §2, §3, §4
Data set [6] in a line: TLC Rf as a measure of relative lipophilicity. The following applies: silica gel TLC Al foils. Type of data set: physicochemical. On the procedure:
Measurement of the melting points (m.p.) of the obtained compounds was performed with the Büchi M560 melting point device (BÜCHI Labortechnik AG, CH-9230 Flawil/SG, Flawil, Switzerland) and was uncorrected. The ESI-MS (electrospray ionization mass spectroscopy) spectra were recorded with the compactTM Bruker Daltonics Electrospray Ionization Quadrupole Time-of-Flight (ESI-Q-TOF) spectrometer (Bruker Daltonics GmbH, Bremen, Germany). The ESI-MS measurements for new compounds were performed in both positive- and negative-ion mode in LC-MS-grade using LC-MS grade methanol as a solvent. ESI-MS spectral analysis and the simulation of the theoretical monoisotopic mass of detected ions were performed using Bruker Compass Data Analysis 4.2 software (Bruker Daltonics GmbH, Bremen, Germany). All ^1H and ^13C-NMR spectra were recorded on the following instruments: Bruker NMR AVANCE III™ 600 MHz spectrometer with Ascend™ technology magnet with a quadruple resonance NMR ‘inverse’ cryoprobe (Bruker Corporation, Billerica, MA, USA) and/or Bruker ARX-300 (300 MHz) spectrometer (Bruker Analytische Messtechnik GmbH, Rheinstetten, Germany). The NMR measurements of samples of the compounds were carried out at room temperature (20–25 °C) using 5 mm tubes in deuterated acetone-d6. NMR chemical shifts were referenced to the solvent signal, i.e., for ^1H-NMR: δ (quintet of residual acetone-d6) = 2.05 ppm and for ^13C-NMR: δ (septet of acetone-d6) = 29.84 ppm. The Nicolet iS50 FT-IR spectrophotometer (Thermo Fisher Scientific Inc., Waltham, MA, USA) was used to record the Attenuated Total Reflectance IR (ATR-FT-IR) spectra (at MIR range 4000–450 cm^−1). Recording of spectra was performed on the diamond crystal surface (32 scans, resolution: 1 cm^−1, measurement temperature: 20–25 °C) with ATR intensity correction in the Laboratory of Elemental Analysis and Structural Research, Faculty of Pharmacy, Wroclaw Medical University. A Fourier transform, Bruker VERTEX 70V vacuum spectrometer equipped with an air-cooled DTGS detector was used to obtain the Far-IR (far-infrared) spectra (below 500 cm^−1) of the Pt(II) complexes. The spectra measurements were conducted with the ATR accessory, such as a diamond ATR crystal, in the resolution of 1 cm^−1 with 64 scans in the Laboratory of Vibrational Spectroscopy of the Faculty of Chemistry at Wrocław University of Science and Technology. No ATR intensity correction was applied to Far-IR spectra. Omnic 9.3.30 and Omnic Specta 2.0 software (Thermo Fisher Scientific Inc.) was used to process and analyze spectra. A double beam U-2800 Spectrophotometer (Hitachi—Science & Technology, Tokyo, Japan) was used to record UV spectra of Pt-complexes (C1 and C2) and reaction rate measurements of the GSH complexes. Dioxane solutions of complexes were used in the following concentrations: c = 2 × 10^−5 M and 3 × 10^−5 M, respectively, for C1 and C2. Measurement of UV spectra was conducted in quartz cuvettes (path length = 10.0 mm) in the range 190–400 nm (sampling interval 1 nm, scan speed 200 nm/min). All UV experiments were performed in the Laboratory of Elemental Analysis and Structural Research, Faculty of Pharmacy, Wroclaw Medical University. Baselines were corrected with pure dioxane as the reference solvent. Thin-layer chromatography (TLC) was used to monitor the progress of the reaction course and determine the purity of the synthesized compounds. Silica gel on TLC Al foils with fluorescent indicator 254 nm (Sigma-Aldrich, Merck Group, Darmstadt, Germany) was used as the stationary phase and chloroform–acetone mixtures (volume ratios 9:1, 7:3, and 1:1) as the eluent. Detection of Pt(II) compounds in the chromatograms was performed using a 0.5% acetone solution of rubeanic acid (dithiooxamide), and organic impurities were detected by observing the plates under UV light at 250 nm. […]

The nature of data set [7]: TLC Rf as a measure of relative lipophilicity. The following applies: silica gel TLC Al foils. The class given is physicochemical. The source holds these as a separate data set.
Data set [8] is described as follows: Solubility in solvents (qualitative). The class given is physicochemical.
Where [9] appears, read: normoxia, read-out: IC50 ± SD, A549 (Lung), Normoxia.
Setting [10] is: hypoxia, read-out: IC50 ± SD, ES-2 (Ovarian), Hypoxia.
The mark [11] stands for this setting: normoxia, read-out: IC50 ± SD, ES-2 (Ovarian), Normoxia.
The mark [12] stands for this setting: hypoxia, read-out: IC50 ± SD, MCF-7 (Breast), Hypoxia.
[13] abbreviates: normoxia, read-out: IC50 ± SD, MCF-7 (Breast), Normoxia.
The mark [14] stands for this setting: earlier work of the authors, same methodology.

For the compound `N.N.O=C([O-])C1(C(=O)[O-])CCC1.[Pt+2]` [Carboplatin], the “Half-time, t1/2 of reaction with GSH” value in data set [1] (literature value) was 16.7–32.7 h [35].

In the case of `N.N.[Cl][Pt][Cl]` [Cisplatin, cis-diamminodichloroplatinum, reference compound], the IC50 in data set [2] (hypoxia, read-out: IC50 ± SD, A549 (Lung), Hypoxia) was 14.8 ± 1.93 µM; in data set [2] (setting [9]) it was 12.5 ± 1.64 µM; in data set [3] (setting [10]), 6.28 ± 2.19 µM; in data set [3] (setting [11]) it was 9.85 ± 4.68 µM; in data set [4] (setting [12]), 9.74 ± 5.84 µM; in data set [4] (setting [13]) it was 14.4 ± 1.4 µM. Further, in data set [5], the IC50 was 8.1 ± 5.61 µM.

Consider `O=C(O)C(=O)O.[NH-][C@@H]1CCCC[C@H]1[NH-].[Pt+2]` [Oxaliplatin], for which the “Half-time, t1/2 of reaction with GSH” value in data set [1] (literature value, similar conditions) was 44 min [35].

As for `N.N.[Cl][Pt+2][Cl]` [Transplatin], in data set [1] (literature value), the “Half-time, t1/2 of reaction with GSH” value is 4 min [36].

As for `Cc1noc(C)c1[N+](=O)[O-].Cc1noc(C)c1[N+](=O)[O-].[Cl][Pt@SP1][Cl]` [cis-Pt(NO2Isoxazol)2Cl2], in data set [1] (setting [14]), the “Half-time, t1/2 of reaction with GSH” value was 42 min [18].

With `Cn1cc([N+](=O)[O-])cn1.Cn1cc([N+](=O)[O-])cn1.[Cl][Pt@SP1][Cl]` [cis-Pt(NO2Pyraz)2Cl2], in data set [1] (setting [14]), the “Half-time, t1/2 of reaction with GSH” value was 83 min [17].

Take `Cc1noc(C)c1[N+](=O)[O-].Cc1noc(C)c1[N+](=O)[O-].[Cl][Pt][Cl]` [trans-Pt(NO2Isoxazol)2Cl2, trans-dichlorobis(3,5-dimethyl-4-nitro-isoxazole)platinum(II)]: the “Half-time, t1/2 of reaction with GSH” value in data set [1] (setting [14]) was 18 min [18].

Take `Cn1cc([N+](=O)[O-])cn1.Cn1cc([N+](=O)[O-])cn1.[Cl][Pt][Cl]` [trans-Pt(NO2Pyraz)2Cl2, trans-[PtCl2 (1-methyl-4-nitropyrazole)2]]: the “Half-time, t1/2 of reaction with GSH” value in data set [1] (setting [14]) is 13 min [17].

Consider “cis-Dichlorobis(3-methyl-4-nitroisothiazole-5-carboxamide)platinum(II) [C5]”, for which the “IC50 ± SD, A549 (Lung), Hypoxia” value in data set [2] (hypoxia) was “inactive”. Also, the IC50 in data set [2] (setting [9]) was determined as 66.2 ± 1.15 µM; in data set [3] (setting [10]), 50.1 ± 7.97 µM; in data set [3] (setting [11]), 62.5 ± 22.7 µM; in data set [4] (setting [12]) it was 67.3 ± 28.3 µM; in data set [4] (setting [13]), 57.6 ± 7.69 µM; in data set [5], 64.2 ± 15.8 µM. Also, the “Rf, Eluent: Chlorofom:Acetone Ratio 1:1 Vol.” value in data set [6] was determined as 0.655. Moreover, in data set [6], the “Rf, Eluent: Chlorofom:Acetone Ratio 9:1 Vol.” value was found to be 0.005. Moreover, the “Rf, Eluent: Chlorofom:Acetone Ratio 9:7 Vol.” value in data set [7] turned out to be 0.215. In addition, the solubility in acetone entry in data set [8] (acetone) is “very poorly soluble; also recorded: weakly soluble”. The solubility in acetonitrile result in data set [8] (acetonitrile, relative to acetone) is “slightly better”. Further, the solubility in chloroform result in data set [8] (chloroform) is reported as “practically insoluble”.
